Assay results from patent publication EP4293019A1, “4-SUBSTITUTED (1H-BENZO[D]IMIDAZOL-2-YL)-1H-PYRAZOLES AS BUB1 INHIBITORS USEFUL FOR TREATING CANCERS” (Netherlands Translational Research Center Holding B.V., priority 2022, dated 2023).
Where a name gives a salt, the structure may show the parent alone.

Molecular target: T1, hBUB1 (Homo sapiens, UniProt O43683)
T1 construct: purchased Carna Biosciences 05-187
Test: hBUB1 kinase activity assay (biochemical fluorescence polarization assay, IMAP)
Conditions: BUB1/BUB3 3.26 nM, ATP 15 µM, BUB1/BUB3 substrate 75 nM; N=2, n=2
Experimental: This protocol describes how the Kinase Activity Assay was performed to determine pIC50 values of compounds of general formula (I) against hBUB1.
Assays were performed in 384-well plates (Greiner, black, flat bottom, 781076) by sequential addition (final concentrations are indicated) of inhibitor (5 µL, 0.3 nM - 1 µM or 3 nM - 10 µM), BUB1/BUB3 (5 µL, 3.26 nM, Carna Biosciences (05-187), lot: 15CBS-0644 D), ATP (5 µL, 15 µM) and BUB1/BUB3 substrate (5 µL, 75 nM, Carna Biosciences (05-187MSSU)), all as 4x working solutions. The final concentration of DMSO was 1%. Assay reactions were stopped by addition of IMAP progressive binding reagent (20 µL, 1200x diluted, Molecular Devices (R8155), lot: 3117896). Each assay included the following controls: (i) a background control (treated with vehicle instead of inhibitor and BUB1/BUB3 substrate), (ii) MIN controls (treated with 5 µM BAY1816032 (MedChem Express) as inhibitor, used as 0% BUB1 activity) and (iii) MAX controls (treated with vehicle instead of inhibitor, used as 100% BUB1 activity). All inhibitors were tested in two separate assays and all inhibitor concentrations were tested in duplicate per assay (N=2, n=2).
For each assay, assay buffer (AB) was freshly prepared and consisted of 20 mM HEPES (prepared by diluting 1 M HEPES, pH 7.2), 5 mM MgCl2, 0.01% Tween-20 and 1 mM DTT. Stocks of inhibitors (in DMSO) were diluted in AB to obtain 4x working solutions (4% DMSO) and 5 µL was added to the assay plate. BUB1/BUB3 (3.26 µM (486 µg/mL) in storage buffer) was diluted in AB to obtain 13.0 nM of which 5 µL was added to all wells of the assay plate. The assay plate was centrifuged (1 min, 200 g) and incubated at RT for 30 min. ATP (4 mM in MilliQ) was diluted in AB to obtain 60 µM of which 5 µL was added to each well. BUB1/BUB3 substrate (1 mM) was diluted in 20 mM HEPES (prepared by diluting 1 M HEPES (pH 7.2) in MilliQ) to obtain 80 µM (this solution was freshly prepared every assay) and further diluted in AB to obtain 300 nM after which 5 µL was added to each well of the assay plate except for background control wells. The assay plate was centrifuged (1 min, 200 g) and incubated at RT in the dark for 180 min. IMAP progressive binding buffer A (5x) and IMAP progressive binding buffer B (5x) were mixed in a ratio to obtain 30% buffer A and 70% buffer B, which was subsequently diluted 5x in MilliQ. IMAP progressive binding reagent was diluted 600x in aforementioned mixture of buffer A and B (to obtain a 2x working solution) of which 20 µL was added to each well of the assay plate. The assay plate was centrifuged (1 min, 200 g) and incubated at RT in the dark for 90 min. Fluorescence polarization was measured on a CLARIOstar plate reader using the following settings: (i) optic settings → excitation = F: 482-16, dichroic = F: LP 504, emission = F: 530-40, (ii) optic = top optic, (iii) speed/precision = maximum precision, (iv) focus adjustment was performed for every assay and (v) gain adjustment was done by setting the target mP value to 35 mP for one of the MIN control wells. Data was normalized between MIN and MAX controls and data was plotted using GraphPad Prism 8.0 using "Nonlinear regression (curve fit)" and "log(inhibitor) vs. normalized response - Variable slope" to determine pIC50 values.
Inhibition is indicated as pIC50 ("-" = not measured). Compounds having an activity designated as "A" provided an pIC50 ≥ 7.0 (IC50 ≤100 nM); compounds having an activity designated as "B" provided an 6.3 ≤ pIC50 < 7.0 (100 nM<IC50 ≤ 500 nM); compounds having an activity designated as "C" provided an 6.0 ≤ pIC50 < 6.3 (500 nM < IC50 ≤ 1 µM); compounds having an activity designated as "D" provided an 6.0 < pIC50 ≤ 5.0 (1 µM < IC50 ≤ 10 µM); and compounds having an activity designated as "E" provided an pIC50 < 5.0 (IC50 >10 µM).

T1 sequence (O43683 whole entry): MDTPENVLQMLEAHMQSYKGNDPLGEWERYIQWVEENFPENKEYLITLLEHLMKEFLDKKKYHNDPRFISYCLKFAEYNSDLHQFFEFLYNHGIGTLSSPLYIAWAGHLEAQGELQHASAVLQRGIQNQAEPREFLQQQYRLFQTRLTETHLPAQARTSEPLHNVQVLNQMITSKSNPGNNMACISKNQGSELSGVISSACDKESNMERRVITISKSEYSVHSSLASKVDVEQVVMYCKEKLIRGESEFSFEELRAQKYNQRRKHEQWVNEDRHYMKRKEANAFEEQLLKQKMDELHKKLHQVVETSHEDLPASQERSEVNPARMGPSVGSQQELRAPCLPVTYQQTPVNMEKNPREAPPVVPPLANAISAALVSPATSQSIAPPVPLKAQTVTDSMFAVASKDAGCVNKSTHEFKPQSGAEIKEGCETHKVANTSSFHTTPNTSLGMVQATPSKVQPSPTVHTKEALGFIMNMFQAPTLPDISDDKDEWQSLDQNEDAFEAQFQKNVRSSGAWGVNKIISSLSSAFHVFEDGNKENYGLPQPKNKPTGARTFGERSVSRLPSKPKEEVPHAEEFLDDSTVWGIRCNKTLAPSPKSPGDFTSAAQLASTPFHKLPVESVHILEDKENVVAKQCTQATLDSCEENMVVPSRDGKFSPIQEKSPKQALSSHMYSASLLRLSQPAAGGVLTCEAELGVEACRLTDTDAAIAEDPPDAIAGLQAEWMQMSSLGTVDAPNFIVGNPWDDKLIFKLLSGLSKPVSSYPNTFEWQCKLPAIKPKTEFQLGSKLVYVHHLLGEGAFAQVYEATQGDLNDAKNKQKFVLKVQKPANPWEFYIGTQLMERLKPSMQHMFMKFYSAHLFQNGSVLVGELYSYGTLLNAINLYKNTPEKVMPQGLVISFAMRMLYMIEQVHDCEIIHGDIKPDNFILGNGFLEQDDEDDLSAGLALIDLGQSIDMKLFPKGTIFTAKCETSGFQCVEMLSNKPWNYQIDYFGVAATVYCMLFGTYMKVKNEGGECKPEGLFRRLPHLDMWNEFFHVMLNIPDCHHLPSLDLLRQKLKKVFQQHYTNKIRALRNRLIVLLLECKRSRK
T1 sequence (O43684 whole entry partner): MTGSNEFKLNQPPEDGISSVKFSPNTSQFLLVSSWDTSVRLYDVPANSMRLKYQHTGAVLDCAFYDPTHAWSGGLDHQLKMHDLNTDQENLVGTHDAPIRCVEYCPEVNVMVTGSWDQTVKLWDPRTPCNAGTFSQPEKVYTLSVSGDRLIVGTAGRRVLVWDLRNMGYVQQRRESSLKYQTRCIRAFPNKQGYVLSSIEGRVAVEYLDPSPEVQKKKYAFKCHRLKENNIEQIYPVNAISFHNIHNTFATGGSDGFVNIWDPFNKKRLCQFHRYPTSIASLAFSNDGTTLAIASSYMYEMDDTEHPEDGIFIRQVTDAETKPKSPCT

SMILES | hBUB1 pIC50
COc1ccc(-c2nccc(Nc3c[nH]nc3-c3nc4ccccc4[nH]3)n2)cc1 [Compound 34, N-(3-(1H-Benzo[d]imidazol-2-yl)-1H-pyrazol-4-yl)-2-(4-methoxyphenyl)pyrimidin-4-amine] | D (6.0 < pIC50 ≤ 5.0 (1 µM < IC50 ≤ 10 µM))
c1ccc2c(-c3nccc(Nc4c[nH]nc4-c4nc5ccccc5[nH]4)n3)cccc2c1 [Compound 36, N-(3-(1H-Benzo[d]imidazol-2-yl)-1H-pyrazol-4-yl)-2-(naphthalen-1-yl)pyrimidin-4-amine] | D (6.0 < pIC50 ≤ 5.0 (1 µM < IC50 ≤ 10 µM))
c1ccc2cc(-c3nccc(Nc4c[nH]nc4-c4nc5ccccc5[nH]4)n3)ccc2c1 [Compound 39, N-(3-(1H-Benzo[d]imidazol-2-yl)-1H-pyrazol-4-yl)-2-(naphthalen-2-yl)pyrimidin-4-amine] | D (6.0 < pIC50 ≤ 5.0 (1 µM < IC50 ≤ 10 µM))
COc1ccccc1-c1nccc(Nc2c[nH]nc2-c2nc3ccccc3[nH]2)n1 [Compound 26, N-(3-(1H-Benzo[d]imidazol-2-yl)-1H-pyrazol-4-yl)-2-(2-methoxyphenyl)pyrimidin-4-amine] | D (6.0 < pIC50 ≤ 5.0 (1 µM < IC50 ≤ 10 µM))
CC(C)c1cccc(-c2nccc(Nc3c[nH]nc3-c3nc4ccccc4[nH]3)n2)c1 [Compound 30, N-(3-(1H-Benzo[d]imidazol-2-yl)-1H-pyrazol-4-yl)-2-(3-isopropylphenyl)pyrimidin-4-amine] | D (6.0 < pIC50 ≤ 5.0 (1 µM < IC50 ≤ 10 µM))
Cc1ccc(-c2nccc(Nc3c[nH]nc3-c3nc4ccccc4[nH]3)n2)cc1 [Compound 32, N-(3-(1H-Benzo[d]imidazol-2-yl)-1H-pyrazol-4-yl)-2-(p-tolyl)pyrimidin-4-amine] | D (6.0 < pIC50 ≤ 5.0 (1 µM < IC50 ≤ 10 µM))
c1ccc(-c2nccc(Nc3c[nH]nc3-c3nc4ccccc4[nH]3)n2)cc1 [Compound 23, N-(3-(1H-benzo[d]imidazol-2-yl)-1H-pyrazol-4-yl)-2-phenylpyrimidin-4-amine] | D (6.0 < pIC50 ≤ 5.0 (1 µM < IC50 ≤ 10 µM))
Cc1ccccc1-c1nccc(Nc2c[nH]nc2-c2nc3ccccc3[nH]2)n1 [Compound 24, N-(3-(1H-benzo[d]imidazol-2-yl)-1H-pyrazol-4-yl)-2-(o-tolyl)pyrimidin-4-amine] | D (6.0 < pIC50 ≤ 5.0 (1 µM < IC50 ≤ 10 µM))
Clc1ccc(-c2nccc(Nc3c[nH]nc3-c3nc4ccccc4[nH]3)n2)cc1 [Compound 33, N-(3-(1H-Benzo[d]imidazol-2-yl)-1H-pyrazol-4-yl)-2-(4-chlorophenyl)pyrimidin-4-amine] | D (6.0 < pIC50 ≤ 5.0 (1 µM < IC50 ≤ 10 µM))
c1ccc2[nH]c(-c3n[nH]cc3Nc3ccnc(-c4cccc5[nH]ncc45)n3)nc2c1 [Compound 38, N-(3-(1H-Benzo[d]imidazol-2-yl)-1H-pyrazol-4-yl)-2-(1H-indazol-4-yl)pyrimidin-4-amine] | D (6.0 < pIC50 ≤ 5.0 (1 µM < IC50 ≤ 10 µM))

Same assay, conditions: BUB1/BUB3 3.26 nM, ATP 15 µM, BUB1/BUB3 substrate 75 nM; N=2, n=2; read-out: hBUB1 pIC50 (converted)

SMILES | IC50 [nM]
c1ccc(CCOc2nccc(Nc3c[nH]nc3-c3nc4cc(CN5CCOCC5)ccc4[nH]3)n2)cc1 [Compound 19, N-(3-(5-(morpholinomethyl)-1H-benzo[d]imidazol-2-yl)-1H-pyrazol-4-yl)-2-phenethoxypyrimidin-4-amine] | 501 to 1000
C#Cc1nccc(Nc2c[nH]nc2-c2nc3cc(CN4CCOCC4)ccc3[nH]2)n1 [Compound 15, 2-ethynyl-N-(3-(5-(morpholinomethyl)-1H-benzo[d]imidazol-2-yl)-1H-pyrazol-4-yl)pyrimidin-4-amine] | 100 to 501

More lines, now with the values ahead:

IC50 [nM] | SMILES
501 to 1000 | Clc1cccc(Oc2nccc(Nc3c[nH]nc3-c3nc4cc(CN5CCOCC5)ccc4[nH]3)n2)c1 [Compound 49, 2-(3-Chlorophenoxy)-N-(3-(5-(morpholinomethyl)-1H-benzo[d]imidazol-2-yl)-1H-pyrazol-4-yl)pyrimidin-4-amine]
501 to 1000 | Clc1ccccc1-c1nccc(Nc2c[nH]nc2-c2nc3ccccc3[nH]2)n1 [Compound 25, N-(3-(1H-Benzo[d]imidazol-2-yl)-1H-pyrazol-4-yl)-2-(2-chlorophenyl)pyrimidin-4-amine]
501 to 1000 | c1csc(-c2nccc(Nc3c[nH]nc3-c3nc4cc(CN5CCOCC5)ccc4[nH]3)n2)c1 [Compound 22, N-(3-(5-(morpholinomethyl)-1H-benzo[d]imidazol-2-yl)-1H-pyrazol-4-yl)-2-(thiophen-2-yl)pyrimidin-4-amine hydrochloride]
501 to 1000 | c1cnn(-c2nccc(Nc3c[nH]nc3-c3nc4cc(CN5CCOCC5)ccc4[nH]3)n2)c1 [Compound 20, N-(3-(5-(Morpholinomethyl)-1H-benzo[d]imidazol-2-yl)-1H-pyrazol-4-yl)-2-(1H-pyrazol-1-yl)pyrimidin-4-amine]
501 to 1000 | Clc1ccc(Oc2nccc(Nc3c[nH]nc3-c3nc4cc(CN5CCOCC5)ccc4[nH]3)n2)cc1 [Compound 50, 2-(4-Chlorophenoxy)-N-(3-(5-(morpholinomethyl)-1H-benzo[d]imidazol-2-yl)-1H-pyrazol-4-yl)pyrimidin-4-amine]
100 to 501 | Clc1cccc(-c2nccc(Nc3c[nH]nc3-c3nc4ccccc4[nH]3)n2)c1 [Compound 28, N-(3-(1H-Benzo[d]imidazol-2-yl)-1H-pyrazol-4-yl)-2-(3-chlorophenyl)pyrimidin-4-amine]
501 to 1000 | Clc1ccccc1Oc1nccc(Nc2c[nH]nc2-c2nc3cc(CN4CCOCC4)ccc3[nH]2)n1 [Compound 48, 2-(2-Chlorophenoxy)-N-(3-(5-(morpholinomethyl)-1H-benzo[d]imidazol-2-yl)-1H-pyrazol-4-yl)pyrimidin-4-amine]
501 to 1000 | COc1cccc(-c2nccc(Nc3c[nH]nc3-c3nc4ccccc4[nH]3)n2)c1 [Compound 29, N-(3-(1H-Benzo[d]imidazol-2-yl)-1H-pyrazol-4-yl)-2-(3-methoxyphenyl)pyrimidin-4-amine]
501 to 1000 | c1cc(Nc2c[nH]nc2-c2nc3cc(CN4CCOCC4)ccc3[nH]2)nc(-c2ccsc2)n1 [Compound 21, N-(3-(5-(morpholinomethyl)-1H-benzo[d]imidazol-2-yl)-1H-pyrazol-4-yl)-2-(thiophen-3-yl)pyrimidin-4-amine hydrochloride]
100 to 501 | Cc1cccc(-c2nccc(Nc3c[nH]nc3-c3nc4ccccc4[nH]3)n2)c1 [Compound 27, N-(3-(1H-Benzo[d]imidazol-2-yl)-1H-pyrazol-4-yl)-2-(m-tolyl)pyrimidin-4-amine]
> 10000 | c1cc(-c2nccc(Nc3c[nH]nc3-c3nc4ccccc4[nH]3)n2)c2[nH]ccc2c1 [Compound 37, N-(3-(1H-Benzo[d]imidazol-2-yl)-1H-pyrazol-4-yl)-2-(1H-indol-7-yl)pyrimidin-4-amine]
